The values below come from patent US7790898B2, “Substituted 3-phenylpiperidine compounds, their preparation and use” (Gruenenthal GmbH, priority 2004, dated 2010).

The test deals with L-calcium channel benzothiazepine binding site. Kind of test: Binding at the L-calcium channel benzothiazepine binding site (diltiazem binding). To be noted: rat cerebral cortex membranes; for Diltiazem binding [10 μM] % inhibition: 10 μM test compound, [3H]-cis-(+)-diltiazem 5 nM, 20 minutes at 25° C. The protocol:
Biological Data: Investigations on Binding at the L-Calcium Channel Benzothiazepine Binding Site (Diltiazem Binding)
The biological membrane material was isolated from rat cerebral cortex. [^3H]-cis-(+)-diltiazem (5 nM in the batch) was used as ligand. Incubation was for 20 minutes at 25° C. The radioactivity measured in the presence of (±)-diltiazem (10^−6 M in the batch) is defined as the non-specific binding. The non-bound fraction of the radioactive ligand was separated after completion of the incubation, using a filtration process through Whatman glass fiber GF/B membranes. After being washed, the membranes were then measured in a β-counter. The method was developed based on the publication by Schoemaker and Langer (H. Schoemaker and S. Z. Langer (1985) Eur. J. Pharmacol. 111, 273-277).

Take `COc1cccc(C2(O)CCCN(C(=O)c3ccc(C)cc3)C2)c1` (centres unmarked) [Example 9, [3-hydroxy-3-(3-methoxyphenyl)-piperidine-1-yl]-p-tolyl-methanone]: the “Diltiazem binding [10 μM] % inhibition” value is given as 55.8%.

With `COc1cccc(C2(O)CCCN(Cc3cccc(F)c3)C2)c1.Cl` (centres unmarked) [Example 32, 1-(3-fluorobenzyl)-3-(3-methoxyphenyl)-piperidine-3-ol hydrochloride], the “Diltiazem binding [10 μM] % inhibition” value is given as 83.7%. On to `COc1cccc(C2(O)CCCN(Cc3ccc(F)cc3)C2)c1.Cl` (centres unmarked) [Example 33, 1-(4-fluorobenzyl)-3-(3-methoxyphenyl)-piperidine-3-ol hydrochloride], for which the “Diltiazem binding [10 μM] % inhibition” value is on record as 95%. For the compound `COc1cccc(C2(O)CCCN(Cc3ccc(Br)cc3)C2)c1.Cl` (centres unmarked) [Example 34, 1-(4-bromobenzyl)-3-(3-methoxyphenyl)-piperidine-3-ol hydrochloride], the “Diltiazem binding [10 μM] % inhibition” value turned out to be 78.7%. On the same count and under the same terms, with `COc1cccc(C2(O)CCCN(Cc3cc(F)cc(F)c3)C2)c1.Cl` (centres unmarked) [Example 36, 1-(3,5-difluorobenzyl)-3-(3-methoxyphenyl)-piperidine-3-ol hydrochloride] the figure was 57.4%; with `COc1cccc(C2(O)CCCN(Cc3ccc(Cl)c(Cl)c3)C2)c1.Cl` (centres unmarked) [Example 37, 1-(3,4-dichlorbenzyl)-3-(3-methoxyphenyl)-piperidine-3-ol hydrochloride], 80.7%; with `COc1cccc(C2(O)CCCN(Cc3ccc(C)cc3)C2)c1.Cl` (centres unmarked) [Example 39, 3-(3-methoxyphenyl)-1-(4-methylbenzyl)-piperidine-3-ol hydrochloride], 76%. In the case of `COc1cccc(C2(O)CCCN(Cc3cccc(C(F)(F)F)c3)C2)c1.Cl` (centres unmarked) [Example 40, 3-(3-methoxyphenyl)-1-(3-trifluoromethylbenzyl)-piperidine-3-ol hydrochloride], the “Diltiazem binding [10 μM] % inhibition” value came out at 85.9%. On to `COc1cccc(C2(O)CCCN(CCOc3ccccc3)C2)c1.Cl` (centres unmarked) [Example 41, 3-(3-methoxyphenyl)-1-(2-phenoxy-ethyl)-piperidine-3-ol hydrochloride], for which the “Diltiazem binding [10 μM] % inhibition” value worked out at 92.7%. Turning to `COc1cccc(C2(O)CCCN(Cc3ccc([N+](=O)[O-])cc3)C2)c1.Cl` (centres unmarked) [Example 42, 3-(3-methoxyphenyl)-1-(4-nitrobenzyl)-piperidine-3-ol hydrochloride], the “Diltiazem binding [10 μM] % inhibition” value came out at 50%. On to `COc1ccc(CN2CCCC(O)(c3cccc(C)c3)C2)cc1.Cl` (centres unmarked) [Example 43, 1-(4-methoxybenzyl)-3-(3-methylphenyl)-piperidine-3-ol hydrochloride], for which the “Diltiazem binding [10 μM] % inhibition” value is given as 55%.

Consider `COc1cccc(C2(O)CCCN(Cc3ccc(C#N)cc3)C2)c1.Cl` (centres unmarked) [Example 44, 4-[3-hydroxy-3-(3-methoxyphenyl)-piperidine-1-ylmethyl]-benzonitrile hydrochloride], for which the “Diltiazem binding [10 μM] % inhibition” value came to 52.3%. The same measure, in the same setting: in the case of `COc1cccc(C2(O)CCCN(Cc3cccs3)C2)c1.Cl` (centres unmarked) [Example 46, 3-(3-methoxyphenyl)-1-thiophen-2-ylmethyl-piperidine-3-ol hydrochloride] it was 81.8%. On the same count and under the same terms, with `COc1cccc(C2(O)CCCN(CCc3ccccc3)C2)c1.Cl` (centres unmarked) [Example 47, 3-(3-methoxyphenyl)-1-phenethyl-piperidine-3-ol hydrochloride] the figure was 79.4%; with `COc1cccc(C2(O)CCCN(CC(c3ccccc3)c3ccccc3)C2)c1.Cl` (centres unmarked) [Example 48, 1-(2,2-diphenyl-ethyl)-3-(3-methoxyphenyl)-piperidine-3-ol hydrochloride], 88.2%. As to `COc1cccc(C2(O)CCCN(Cc3cccc(Br)c3)C2)c1.Cl` (centres unmarked) [Example 49, 1-(3-bromobenzyl)-3-(3-methoxyphenyl)-piperidine-3-ol hydrochloride], the “Diltiazem binding [10 μM] % inhibition” value is 90.4%. On to `COc1cccc(C2(O)CCCN(Cc3ccc(C)c([N+](=O)[O-])c3)C2)c1.Cl` (centres unmarked) [Example 50, 3-(3-methoxyphenyl)-1-(4-methyl-3-nitro-benzyl)-piperidine-3-ol hydrochloride], for which the “Diltiazem binding [10 μM] % inhibition” value is reported as 73.8%. Still for that read-out and setting: in the case of `COc1cccc(C2(O)CCCN(Cc3ccc(Cl)c([N+](=O)[O-])c3)C2)c1.Cl` (centres unmarked) [Example 51, 1-(4-chloro-3-nitro-benzyl)-3-(3-methoxyphenyl)-piperidine-3-ol hydrochloride] it was 81.4%; in that of `COc1cccc(C2(O)CCCN(Cc3cc(C(F)(F)F)cc(C(F)(F)F)c3)C2)c1.Cl` (centres unmarked) [Example 52, 1-(3,5-bis-trifluoromethyl-benzyl)-3-(3-methoxyphenyl)-piperidine-3-ol hydrochloride], 75.9%. What is called Kd is a measure of binding affinity in units of concentration. With “[^3H]-cis-(+)-diltiazem [reference compound]”, the equilibrium dissociation constant (Kd) (radioligand, N=3, mean ±SEM, read-out: KD value for this high affinity binding site) came to 4.1 ± 0.75 nM.
